Assay results taken from ChEMBL document CHEMBL1133324, “Suitably functionalised pyrimidines as potential antimycotic agents” (2000).
≈ marks a conversion by molar mass, not a printed value.

Columns and labels:
Trichophyton benhamiae = assay: In vitro antifungal activity against human pathogenic fungi, Trichophyton mentagrophytes; format: functional, Arthroderma benhamiae
Candida albicans = assay: In vitro antifungal activity against human pathogenic fungi, Candida albicans; format: functional
Aspergillus fumigatus = assay: In vitro antifungal activity against human pathogenic fungi, Aspergillus fumigatus; format: functional
Cryptococcus neoformans = assay: In vitro antifungal activity against human pathogenic fungi, Cryptococcus neoformans; format: functional
Sporothrix schenckii = assay: In vitro antifungal activity against human pathogenic fungi, Sporothrix schenck ii; format: functional

| Compound | MIC (Trichophyton benhamiae) [µg/mL] | MIC (Candida albicans) [µg/mL] | MIC (Aspergillus fumigatus) [µg/mL] | MIC (Cryptococcus neoformans) [µg/mL] | MIC (Sporothrix schenckii) [µg/mL] |
| --- | --- | --- | --- | --- | --- |
| CSc1nc(-c2ccccc2)nc(Cl)c1C#N | 12.5 (≈ 47.8 µM) | > 100 | 0.02 (≈ 0.0764 µM) | > 100 | > 100 |
| COc1ccc(-c2nc(SC)nc(Nc3ccc(Cl)cc3)c2C#N)cc1 | > 100 | > 100 | > 100 | > 100 | > 100 |
| CSc1nc(S)c(C#N)c(-c2cccc(F)c2)n1 | > 100 | > 100 | > 100 | > 100 | > 100 |
| CCc1nc(Cl)c(C#N)c(SC)n1 | 1.56 (≈ 7.3 µM) | 25 (≈ 117 µM) | 6.25 (≈ 29.2 µM) | 1.56 (≈ 7.3 µM) | 12.5 (≈ 58.5 µM) |
| CSc1nc(Cl)c(C#N)c(-c2cccc(Cl)c2)n1 | 0.39 (≈ 1.32 µM) | > 100 | 0.09 (≈ 0.304 µM) | 1.56 (≈ 5.27 µM) | > 100 |
| CSc1nc(Nc2ccc(Cl)cc2)c(C#N)c(-c2ccc(F)cc2)n1 | > 100 | > 100 | > 100 | > 100 | > 100 |
| CSc1nc(Cl)c(C#N)c(SC)n1 | 0.005 (≈ 0.0216 µM) | > 100 | 0.002 (≈ 0.00863 µM) | 1.56 (≈ 6.73 µM) | 50 (≈ 216 µM) |
| CSc1nc(Cl)c(C#N)c(-c2cccc(F)c2)n1 | 0.09 (≈ 0.322 µM) | > 100 | 0.09 (≈ 0.322 µM) | 50 (≈ 179 µM) | > 100 |
| COc1ccc(-c2nc(SC)nc(Cl)c2C#N)cc1 | 50 (≈ 171 µM) | > 100 | 50 (≈ 171 µM) | > 100 | > 100 |
| CSc1nc(Cl)c(C#N)c(-c2ccc(F)cc2)n1 | 0.09 (≈ 0.322 µM) | > 100 | 0.04 (≈ 0.143 µM) | 50 (≈ 179 µM) | > 100 |
| CSc1nc(Cl)c(C#N)c(-c2ccc(Cl)cc2)n1 | 0.19 (≈ 0.641 µM) | > 100 | 0.04 (≈ 0.135 µM) | > 100 | > 100 |
| CSc1nc(SCc2ccccc2)nc(Cl)c1C#N | 0.19 (≈ 0.617 µM) | 50 (≈ 162 µM) | 0.78 (≈ 2.53 µM) | 6.25 (≈ 20.3 µM) | 50 (≈ 162 µM) |
| CSc1nc(Nc2ccc(Cl)cc2)c(C#N)c(-c2cccc(F)c2)n1 | > 100 | > 100 | > 100 | > 100 | > 100 |
| CSc1ncnc(Cl)c1C#N | 0.39 (≈ 2.1 µM) | 25 (≈ 135 µM) | 0.39 (≈ 2.1 µM) | 1.56 (≈ 8.4 µM) | 6.25 (≈ 33.7 µM) |
| CCSc1nc(Cl)c(C#N)c(-c2cccc(F)c2)n1 | 0.39 (≈ 1.33 µM) | > 100 | 1.56 (≈ 5.31 µM) | 3.12 (≈ 10.6 µM) | 50 (≈ 170 µM) |
| C[C@@H]1[C@H](O)[C@@H](C)/C=C/C=C/C=C/C=C/C=C/C=C/C=C/[C@H](O[C@@H]2O[C@H](C)[C@@H](O)[C@H](N)[C@@H]2O)C[C@@H]2O[C@](O)(C[C@@H](O)C[C@@H](O)[C@H](O)CC[C@@H](O)C[C@@H](O)CC(=O)O[C@H]1C)C[C@H](O)[C@H]2C(=O)O [AMPHOTERICIN B] | 0.005 (≈ 0.00541 µM) | – | 0.002 (≈ 0.00216 µM) | – | – |
| CC(=O)N1CCN(c2ccc(OC[C@H]3CO[C@](Cn4ccnc4)(c4ccc(Cl)cc4Cl)O3)cc2)CC1 [KETOCONAZOLE] | 0.1 (≈ 0.188 µM) | 0.3 (≈ 0.565 µM) | 0.7 (≈ 1.32 µM) | 0.1 (≈ 0.188 µM) | 25 (≈ 47 µM) |
